Experimental data as given in patent US7244712B2, “Aminoglycoside antibiotics and methods of using same” (priority 2004, dated 2007).
Converted amounts (≈) assume the structure as drawn.

Key:
E. coli (ATCC 25922) [1] = assay: Bactericidal activity (bactericide index); type: cell-based; conditions: 3 h incubation, FIG. 8
Procedure: The bactericidal activity of each antibiotic was investigated at concentrations of 0.5-4×MIC in medium E. coli (ATCC 25922) inoculum was added to 0.5 mL medium 2 to OD 600 ˜0.1 together with different antibiotic concentrations. The samples were incubated at 37° C. for 3 hrs, and the bacteria were collected by centrifugation. The bacterial pellets were washed with 0.5 mL of medium 2 and were plated on 1.5% medium 2 agar in 100 mm Petri dishes. The plates were incubated for 1-2 days at 37° C. and mean log 10 change in viable count was calculated and plotted vs drug concentration.

[2] = system: P. aeruginosa (ATCC 27853); assay: MIC, P. aeruginosa; type: cell-based; conditions: growth inhibition greater than 90%
Procedure: (§1) Minimal inhibitory concentrations (MIC) were measured according to the published method (Greenberg, W. A., Priestley, E. S., Sears, P. S., Alper, P. B., Rosenbohm, C., Hendrix, M., Hung, S.-C., & Wong, C.-H. (1999) J. Am. Chem. Soc. 121, 6527-6541). E. coli (ATCC 25922) (both wild type and pMM-transformed) and P. aeruginosa (ATCC 27853) were grown in medium 2 to an optical density OD 600 of 0.6-0.8. The inoculi were diluted to OD 600 ˜0.1 in medium 2 and 1 mL of the culture was placed in 13 mL test tubes. The desired concentrations of antibiotic were added from stock solutions. […] The absorbance at 600 nm of each sample was read and MIC was taken as the lowest antibiotic concentration inhibiting bacterial growth by greater than 90%.

[3] = system: E. coli S30 extract, containing 70S ribosomes; assay: In vitro protein translation (CAT mRNA, 35S methionine incorporation); type: biochemical; conditions: quantitation of gel bands, read-out: IC50, concentration producing 50% inhibition of translation
Procedure: Protein translation was performed from chloramphenicol acetyl transferase (CAT) mRNA. […] A commercial E. coli ribosomal suspension was supplemented with an E. coli extract containing the required elements for translation. These include translation factors, tRNAs, and aminoacyl tRNA synthases. Plasmid, T7 RNA polymerase and amino acids were added to the reaction mixture, and both transcription and translation steps were performed in the same vial. The effects of the aminoglycosides on the translation process were evaluated by measuring the incorporation of ^35S methionine in the translated chloramphenicol acetyl transferase protein.
In vitro translation was performed by using PROTEINscript™-PRO (Ambion) kit. […] Reaction mixtures contained appropriate concentrations of antibiotic (neomycin B, D- and L-neamine). The protein was translated from CAT mRNA, transcribed from control DNA template containing CAT gene under control of the T7 promotor. The product, ˜25 kDa chloramphenicol acetyl transferase, was labeled during translation with 1 μCi ^35S methionine (New England Nuclear) per reaction (no cold methionine was added).
Following the translation, the samples were analyzed by electrophoresis on 4-20% SDS mini-gels (Invitrogen) for 1.5 h at 120V. Gels were fixed with 40% methanol/10% acetic acid and exposed to Molecular Dynamics phosphoimager plates, which were read on a Personal FX phosphoimager (Bio-Rad) and quantitated using QuantityOne™ software.

E. coli (ATCC 25922) [4] = assay: MIC, wild type E. coli; type: cell-based; conditions: growth inhibition greater than 90%
Procedure: as §1

S. aureus = assay: Antibacterial activity against S. aureus; type: cell-based
70S ribosome = assay: Fluorescence anisotropy binding to 70S ribosomes; conditions: competition with CRP, E. coli ribosomes; read-out: Dissociation constant (KD) with 70S ribosome
Procedure: After establishing the lack of stereospecificity in the binding of aminoglycosides to the A-site RNA constructs (FIG. 9A-C) where the binding affinity, KD, is about 0.1 μM to about 100 μM, the stereospecificity of aminoglycoside binding to intact ribosomes was determined. Both yeast and E. coli ribosomes were prepared and aminoglycoside binding was measured using fluorescence anisotropy methods. For example, fluorescence anisotropy methods recited in Wang, Y., and Rando, R. R. Chem. Biol. (1995) 2, 281-290; and Wang, Y., Hamasaki, K., and Rando, R. R. Biochemistry (1997) 36,768-779. CRP was used as the binding probe. […] Binding data reported herein for aminoglycoside compounds with eukaryotic yeast ribosomes are similar to binding data for said aminoglycoside compounds with ribosoimes in bacteria and with eukaryotic A-site rRNA constructs.
5-Carboxytetramethylrhodamine-labeled paromomycin (CRP) and tobramycin (CRT) concentrations were determined spectroscopically at 550 nm using a molar extinction coefficient of 6.00×10 4 M −1 cm −1. Fluorescence anisotropy measurements were performed on a Perkin-Elmer LS-50B luminescence spectrometer equipped with a thermostat accurate to ±0.1° C. as indicated previously (Wang, Y., Hamasaki, K., & Rando, R. R. (1997) Biochemistry 36, 768-779). The tracer solution was excited at 550 nm and monitored at 580 nm. The integration time was 5 s. For every point, 6 measurements were taken, and their average values were used for calculation. Measurements were carried out in a buffer solution containing 150 mM NaCl, 5 mM KCl, 1 mM CaCl2, 1 mM MgCl2, and 20 mM HEPES (pH 7.5). Prior to measurements, RNA constructs were renatured by incubating in binding buffer {150 mM NaCl, 5 mM KCl, 1 mM CaCl2, 1 mM MgCl2, and 20 mM HEPES (pH 7.5)} for 3 minutes at 90° C. followed by slow cooling to 25° C.
Equation 1 was used for the determination of the dissociation constant (Kd) for the interactions between RNA or ribosome and CRP. A=A0+DA{(RNA)0+(CRP)0+Kd−({(RNA)0+(CRP)0+Kd}^2−4(RNA)0(CRP)0)½}/2 where A and A0 are the fluorescence anisotropy of CRP in the presence and absence of RNA, respectively, and DA is the difference between the fluorescence anisotropy of CRP in the presence of an extrapolated infinite concentration of RNA minus the fluorescence anisotropy in the absence of RNA. (RNA)0 and (CRP)0 are the initial concentrations of RNA and CRP, respectively.
Equation 2 is used for the calculation of the KD values in the competition binding assay. (aminoglycoside)0={KD(A−−A)/Kd(A−A0)+1}{(RNA)0−Kd(A−A0)/(A−−A)−(CRP)0(A−A0)/(A−−A)} where KD is the dissociation constant between the RNA and the aminoglycosides; (aminoglycoside)0 is the initial concentration of the aminoglycosides; AL is anisotropy of completely bound tracer. Both Kd and KD were determined by non-linear curve fitting using the equations described above, and are presented as mean values of three independent measurements.
The purification of E. coli (E600) 70S ribosomes was carried out according to the published procedure (Lazaro, E., van den Broek, L. A. G. M., Felix, A. S., Ottenheijm, H. C. J., Ballesta, J. P. G. (1991) Biochemistry 30, 9642-9648). E. coli MRE600 were grown for 12 h in 6L of LB medium (10 g trypton, 5 g yeast extract, 5 g NaCl per 1 L, pH 7.0) at 37° C. Crude ribosomes were precipitated from clarified supernatant by 4 h centrifugation at 25,000 rpm in Beckman SW 28 rotor at 4° C. The ribosome pellets were collected in 5 mL of buffer BR1, containing 10 mM HEPES, pH 7.5, 500 mM ammonium acetate, 100 mM magnesium chloride and 2.5 mM DTT. The ribosome suspension was centrifuged for 20 min at 15000 rpm to be clarified. The clarified sample was loaded over two layers of 20% and 40% sucrose in buffer BR1 and centrifuged for 18 hr at 19000 rpm in Beckman SW28 rotor at 4° C. […]

SMILES: NCC1OC(OC2C(N)CC(N)C(O)C2O)C(N)C(O)C1O [L-Neamine]
- Concentration at which bactericidal effect begins (E. coli (ATCC 25922) [1]): 600 µM
- Minimal inhibitory concentration (MIC), P. aeruginosa [2]: 1600 µM (≈ 516 µg/mL)
- IC50 [3]: 195 µM
- Minimal inhibitory concentration (MIC), E. coli (E. coli (ATCC 25922) [4]): 1300 µM (≈ 419 µg/mL)
- Antibacterial activity against S. aureus (S. aureus): little to no antibacterial activity
- Kd (70S ribosome): 2.69 ± 0.46 µM
